# Several values for one entry are separate records, joined by “and”; a condition that tells them apart may be missing. Equal values may be shown once.
# Tests used:
# HSV-1 [1] = test: HSV-1 cytopathic effect (CPE) inhibition assay; assay type: cell-based; settings: Human alphaherpesvirus 1; HSV-1, CPE
# Experimental: (§1) Low passage human foreskin fibroblast cells were seeded into 96 well tissue culture plates 24 hours prior to use at a cell concentration of 2.5×10^4 cells per ml in 0.1 ml (MEM) supplemented with 10% fetal bovine serum (FBS). The cells were then incubated for 24 hour at 37° C. in a CO2 incubator. After incubation, the medium was removed and 100 μl of MEM containing 2% FBS was added to all but the first row. In the first row, 125 μl of experimental drug was added in triplicate wells. Medium alone was added to both cell and virus control wells. The drug in the first row of wells was then diluted serially 1:5 throughout the remaining wells by transferring 25 μl using the Cetus Liquid Handling Machine. After dilution of drug, 100 μl of the appropriate virus concentration was added to each well, excluding cell control wells which received 100 μl of MEM. For HSV-1 and HSV-2 assays, the virus concentration utilized was 1000 PFU's per well. For CMV and VZV assays, the virus concentration added was 2500 PFU per well. The plates were then incubated at 37° C. in a CO2 incubator for three days for HSV-1 and HSV-2, 10 days for VZV, or 14 days for CMV. […] The plates were allowed to dry for 24 h and then read on a Skatron Plate Reader at 620 nm.
# (§2) I. EC50 values were also determined for each of the viruses tested for known antiviral agents. […]
# HSV-1 [2] = test: HSV-1 plaque reduction assay; assay type: cell-based; settings: Human alphaherpesvirus 1, read-out: EC50
# Experimental: Two days prior to use, HFF cells are plated into six well plates and incubated at 37° C. with 5% CO2 and 90% humidity. On the date of assay, the drug is made up at twice the desired concentration in 2×MEM and then serially diluted 1:5 in 2×MEM using six concentrations of drug. The initial starting concentration is usually 200 μg/ml down to 0.06 μg/ml. The virus to be used is diluted in MEM containing 10% FBS to a desired concentration which will give 20-30 plaques per well. The media is then aspirated from the wells and 0.2 ml of virus is added to each well in duplicate with 0.2 ml of media being added to drug toxicity wells. The plates are then incubated for one hour with shaking every fifteen minutes. After the incubation period, an equal amount of 1% agarose was added to a equal volume of each drug dilution. This will give final drug concentrations beginning with 100 μg/ml and ending with 0.03 μg/ml and a final agarose overlay concentration of 0.5%. The drug agarose mixture is applied to each well in 2 ml volume and the plates then incubated for three days, after which the cells were stained with a 1.5% solution of neutral red. At the end of 4-6 hr incubation period, the stain is aspirated, and plaques counted using a stereomicroscope at 1×magnification.
# (§3) The procedure for the liquid overlay plaque assay is similar to that using the agarose overlay. The procedure for adding the virus is the same as for the regular plaque assay. The drugs are made up in a concentration to be used in MEM with 2% FBS. The drugs are not made up at 2×concentration as in previous assays but are made up at the desired concentration. For HSV-1 and HSV-2 assays, an antibody preparation obtained from Baxter Health Care Corporation is diluted 1:500 and added to the media that the drug is diluted in. For CMV and VZV, no antibody in the overlay is utilized. For the CMV assay, additional medium without new drug is added on day six and allowed to incubate for a total of 11 days. For VZV, additional media is added on day five and incubated for a total of eight days. At the end of the incubation period for all of the assays, the medium is removed, the cells washed and then stained with 0.1% crystal violet solution for ten minutes. The cells are then rinsed several times to remove any excess crystal violet and plaques enumerated using a stereomicroscope.
# (§4) I. EC50 values were also determined for each of the viruses tested for known antiviral agents. The comparison compound was ACV for all viruses except for HCMV aherein DHPG was the comparison compound. In Table 26, these comparison EC50 values are indicated with an asterisk. In Table 27, the drug FIAU (2'-fluoro-5-iodo-arabinosyl-uracil) was used as a control.
# HSV-2 = HSV-2 cytopathic effect (CPE) inhibition assay; assay type: cell-based; settings: Human alphaherpesvirus 2; HSV-2, CPE
# Experimental: as §1, §2
# [3] = VZV plaque reduction assay; assay type: cell-based; settings: Human alphaherpesvirus 3, V2V
# Experimental: The procedure is essentially the same as for the HSV plaque assay described above with two exceptions:
# 1. After addition of the drug, the plates are incubated for ten days.
# 2. On days three and six an additional 1 ml overlay with equal amounts of 2×MEM and 1% agarose are added.
# as §3, with “The cells are then rinsed several times to remove any excess crystal violet and plaques enumerated using a stereomicroscope.” left out
# as §2
# EBV = EBV IMN assay; assay type: cell-based; settings: human gammaherpesvirus 4, EBV
# Experimental: as §4
# HFF cells [4] = test: Neutral red uptake toxicity; assay type: cell-based, human; settings: stationary cells
# HFF cells [5] = test: MTT assay for cell cytotoxicity; assay type: cell-based, human; settings: stationary cells
# Experimental: Twenty-four hours prior to assay, HFF cells are plated into 96 well plates at a concentration of […] cells per well. After 24 h, the media is aspirated and […] of drug is added to the first row of wells and then diluted serially 1:5 using the automated Cetus Liquid Handling System in a manner similar to that used in the CPE assay. The plates are then incubated in a CO2 incubator at 37° C. for seven days. At this time, each well receives 50 microliters of […] solution of MTT in Dulbecco's Phosphate Buffered Saline. The plates are then incubated for an additional four hours. At this time, the media is removed and replaced with 100 μl of 0.04N hydrochloric acid in isopropanol. After shaking briefly, the plates are then read on a plate reader at 550 nm.
# HFF cells [6] = test: Cell proliferation assay; assay type: cell-based, human; settings: rapidly growing cells
# Experimental: Twenty-four hours prior to assay, HFF cells are seeded in 6-well plates at a concentration of 2.5×10^4 cells per well in MEM containing 10% FBS. On the day of the assay, drugs are diluted serially in MEM containing 10% FBS at increments of 1:5 covering a range from 100 μg/ml to 0.03 μg/ml. […] The media from the wells is then aspirated and 2 ml of each drug concentration is then added to each well. The cells are then incubated in a Co2 incubator at 37° C. for 72 h. At the end of this time, the media-drug solution is removed and the cells washed. […] The cell-media mixture is then pipetted up and down vigorously to break up the cell suspension and 0.2 ml of the mixture is added to 9.8 ml of Isoton III and counted using a Coulter Counter. Each sample is counted three times with three replicate wells per sample.
# [7] = tested on: human foreskin fibroblast (HFF) cell monolayers; test: Toxicity effects controls: sham-inoculated compound-treated HFF monolayers; assay type: cell-based; settings: Experiment 1 (Table 1); note: key: +: toxic; -: no toxicity; ±: mild toxicity; T: toxicity effects interfered with CPE rating
# From the text: (§5) With sufficient stirring, all the compounds completely dissolved.
# In the tables, the symbols have the meaning indicated: […]
# HSV-1 McKrae Strain = test: Direct virucidal efficacy against HSV-1 on HFF monolayers; assay type: cell-based; settings: for virucidal efficacy (HSV-1 titer): Experiment 1 (Table 2), 24 h PI; for effective virucidal concentration IC50 / effective virucidal concentration IC90: HSV-1
# Experimental: HSV-1 McKrae Strain was diluted to a final concentration of 10^5 PFU/ml in minimal essential medium (MEM). Hereinafter, this dilution is referred to as the HSV-1 Suspension for convenience.
# as §5
# Each of the drug solutions were mixed with the HSV-1 Suspension in a 1:1 ratio. The drug and HSV-1 Suspension mixture was incubated at 37° C. for thirty minutes with agitation every ten minutes. After the incubation, fifty microliter aliquots were overlaid onto triplicate confluent human foreskin fibroblast (HFF) cell monolayers. The inoculum was absorbed for thirty minutes and then a medium containing the appropriate drug concentration in MEM was added to the monolayers to a final volume of 0.5 milliliters per culture-well. The monolayers were incubated at 37° C. The developing HSV-1 Cytopathology was monitored daily for two days by inverted light microscopy. Titers were calculated by multiple regression analysis. All data is presented as the average PFU/ml reduction at 24 and/or 48 hours after inoculation (PI).
# 1. HSV-1 inoculated, non-compound treated HFF monolayers were included as "positive controls"; and […]
# HSV-2 (MS strain) [8] = test: Vaginal virus replication in primary genital HSV-2 infection of guinea pigs; assay type: in vivo, Female Hartley strain guinea pigs
# Experimental: (§6) A series of studies were carried out to compare the activity of inventive antiviral Compounds 23, 76, and 82 in a primary genital HSV-2 infection of guinea pigs. The experiments were placebo-controlled and uninfected animals were treated with three concentrations of each of the preparations to assess skin irritation and determine the maximum tolerated dose.
# (§7) The MS strain of HSV-2 was utilized for the experimental animal infection. Female Hartley strain guinea pigs (Charles River Breeding Laboratories, Kingston, N.Y.) weighing 250-300 g were inoculated intravaginally with 1.4×10^5 plaque forming units of HSV-2 one hour after being swabbed for the removal of vaginal secretions.
# (§8) Groups of 10 infected guinea pigs were treated topically as stated above with 20 mg/ml (the maximum tolerated dose) of each compound beginning 6 h or 24 h after inoculation with HSV-2.
# To determine the effect of treatment on vaginal virus replication, swabs of vaginal secretions were obtained on days 1, 3, 5, 7, and 10 after HSV-2 inoculation, placed in a tube containing 2.0 ml of media, vortexed and frozen at -70° until titrated for HSV-2. When all samples were collected, they were thawed, diluted serially and HSV-2 titers were determined using rabbit kidney cells in a microtiter CPE assay. Mean peak virus titers and areas under the virus titer-day curves were calculated and analyzed.
# (§9) The number of animals infected over the number inoculated, lesion score-day areas and virus titer-day areas under the curve, peak lesion scores and peak virus titers between untreated and placebo-treated or placebo-treatedand drug-treated animals were compared using the Mann-Whitney U rank sum test. A p-value of 0.05 or less was considered significant.
# HSV-2 (MS strain) [9] = test: External genital lesion development in primary genital HSV-2 infection of guinea pigs; assay type: in vivo, Female Hartley strain guinea pigs; design: key to Lesion Score-Day Area Under Curve: area under 0-5+ lesion score vs day curve (score-days); key to Mean Peak Lesion Score: lesion severity on 0-5+ scale
# Experimental: as §6, §7, §8
# To determine the effect of therapy on the development and spread of external genital lesions, lesion severity was scored on a 0-5+ scale through the primary infection (21 days). Mean peak lesion scores and the areas under the lesion score-day curves were calculated and analyzed.
# as §9
# HCMV = HCMV plaque assay; assay type: cell-based; settings: Human betaherpesvirus 5, HCMV
# Experimental: The procedure is essentially the same as for HSV analysis with the following minor changes. The agarose used for the initial overlay and the two subsequent overlays is 0.8% rather than 1%. The assay is incubated for 14 days with the additional 1 ml overlays being applied on days four and eight.
# as §3, with “The cells are then rinsed several times to remove any excess crystal violet and plaques enumerated using a stereomicroscope.” left out
# as §2
compound,measurement,setting,value
Nc1nc2c(ncn2COCCO)c(=O)[nH]1 [ACV],EC50,HSV-1 [1],0.2 µg/mL
same,EC50,HSV-1 [2],0.2 µg/mL
same,EC50,HSV-2,0.7 µg/mL
same,EC50,[3],3.2 µg/mL
same,EC50,EBV,5.8 µg/mL
CC1=[N+]2CC[N+]3=C(C)C=C(c4ccccc4)[O][Co-3]23([NH3+])([NH3+])[O]C(c2ccccc2)=C1.[Cl-] [Compound 64],"toxicity IC50, neutral red uptake",HFF cells [4],15.2 MCG/ML
same,"toxicity IC50, MTT toxicity",HFF cells [5],53 MCG/ML
same,"toxicity IC50, cell proliferation",HFF cells [6],38 MCG/ML
CC1=C(Cl)C(C)=[N+]2CC[N+]3=C(C)C(Cl)=C(C)[O][Co-3]23([NH3+])([NH3+])[O]1.[Cl-] [Compound 67],"toxicity IC50, neutral red uptake",HFF cells [4],12.1 MCG/ML
same,"toxicity IC50, MTT toxicity",HFF cells [5],42.0 MCG/ML
same,"toxicity IC50, cell proliferation",HFF cells [6],12.0 MCG/ML
CC([O-])=CC(C)=NCCN=C(C)C=C(C)[O-].[Br-].[Co+3].c1ccncc1.c1ccncc1 [Compound 76],toxicity effects,"[7]; 24 h PI, 0.001 mg/ml",-
same,toxicity effects,"[7]; 24 h PI, 0.01 mg/ml",-
same,toxicity effects,"[7]; 24 h PI, 0.1 mg/ml",-
same,toxicity effects,"[7]; 48 h PI, 0.001 mg/ml",-
same,toxicity effects,"[7]; 48 h PI, 0.01 mg/ml",-
same,toxicity effects,"[7]; 48 h PI, 0.1 mg/ml",-
same,toxicity effects,"[7]; 48 h PI, 1 mg/ml",+
same,toxicity effects,"[7]; 48 h PI, 10 mg/ml",+
same,virucidal efficacy (HSV-1 titer),HSV-1 McKrae Strain; 0.001 mg/ml,10^5 PFU/ml
same,virucidal efficacy (HSV-1 titer),HSV-1 McKrae Strain; .01 mg/ml,10^3 PFU/ml
same,effective virucidal concentration IC50,HSV-1 McKrae Strain; Experiment 1 (Table 3),0.01 mg/mL
same,effective virucidal concentration IC90,HSV-1 McKrae Strain; Experiment 1 (Table 3),0.1 to 1 mg/mL
same,effective virucidal concentration IC50,HSV-1 McKrae Strain; Experiment 2 (Table 6),0.01 mg/mL
same,effective virucidal concentration IC90,HSV-1 McKrae Strain; Experiment 2 (Table 6),0.1 to 1 mg/mL
same,# Infected/# Inoculated,"HSV-2 (MS strain) [8]; 20 mg/ml, started +6h",5/10
same,Mean Peak Virus Titer,"HSV-2 (MS strain) [8]; 20 mg/ml, started +6h",1.0
same,P-Value for Mean Peak Virus Titer,"HSV-2 (MS strain) [8]; 20 mg/ml, started +6h",< 0.001
same,Virus Titer-Day Area Under Curve,"HSV-2 (MS strain) [8]; 20 mg/ml, started +6h",2.9
same,# Infected/# Inoculated,"HSV-2 (MS strain) [8]; 20 mg/ml, started +24h",10/10
same,Mean Peak Virus Titer,"HSV-2 (MS strain) [8]; 20 mg/ml, started +24h",4.3
same,Virus Titer-Day Area Under Curve,"HSV-2 (MS strain) [8]; 20 mg/ml, started +24h",17.7
same,infectivity rate,HSV-2 (MS strain) [8]; treatment beginning 6 h after infection,50%
same,Lesion Score-Day Area Under Curve,"HSV-2 (MS strain) [9]; 20 mg/ml, started +6h",4.4
same,Mean Peak Lesion Score,"HSV-2 (MS strain) [9]; 20 mg/ml, started +6h",0.4
same,P-Value for Mean Peak Lesion Score,"HSV-2 (MS strain) [9]; 20 mg/ml, started +6h",< 0.001
same,Lesion Score-Day Area Under Curve,"HSV-2 (MS strain) [9]; 20 mg/ml, started +24h",37.2
same,Mean Peak Lesion Score,"HSV-2 (MS strain) [9]; 20 mg/ml, started +24h",3.3
same,lesion AUC difference vs untreated control animals,"HSV-2 (MS strain) [9]; started +24 h, vs untreated control",not significant
Nc1nc2c(ncn2COC(CO)CO)c(=O)[nH]1 [DHPG],EC50,HCMV,0.9 µg/mL
"O=c1[nH]c(=O)n([C@@H]2O[C@H](CO)[C@@H](O)[C@@H]2F)cc1I [FIAU, 2'-fluoro-5-iodo-arabinosyl-uracil]","toxicity IC50, cell proliferation",HFF cells [6],8.4 MCG/ML and 3.3 MCG/ML
